Reference: US11845760B2, “PRMT5 inhibitors” (AMGEN INC., priority 2020, dated 2023)
Where two headings read alike, the source gives them in different places.

Experiments:
[1] = test system: HCT116 MTAP null cells; assay: HCT116 MTAP null cell line proliferation (CellTiter-Glo cell viability, 6 days); format: cell-based; settings: read-out: HCT-116 MTAP null IC50
In short: (§1)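 Isogenic HCT116 pair (both MTAP alleles knocked out vs parent) in RPMI 1640 + 10% FBS, seeded overnight at 37° C, 5% CO2, then exposed 6 days to 8- or 9-point 1:3 dilutions from 1 or 10 μM. CellTiter-Glo luminescence; IC50 from sigmoidal fit, Hill slope fixed −1, top 100%, or 4-parameter logistic.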

[2] = test system: HCT116 WT cells; assay: HCT116 WT cell line proliferation (CellTiter-Glo cell viability, 6 days); format: cell-based; settings: read-out: HCT-116 WT IC50
In short: as §1

[3] = HCT116-MTAP null, 144 h, HCT116 MTAP null cells, 6 days of treatment, CellTiter-Glo cell viability
[4] = Homo sapiens, HCT-116, 144 h, HCT116 WT (parent) cells, 6 days of treatment, CellTiter-Glo cell viability
[5] = HCT116 MTAP null cells, 6 days of treatment, CellTiter-Glo cell viability
[6] = HCT116 WT (parent) cells, 6 days of treatment, CellTiter-Glo cell viability

| Molecule | IC50 [1, 3] [nM] | IC50 [2, 4] [nM] | other results |
| --- | --- | --- | --- |
| Cn1ncc2c(N)nc3cc(C(F)(F)F)c(C(=O)N4CCOC[C@@H]4c4ccc(C(F)(F)F)cc4)cc3c21 [Example 548, (4-amino-1-methyl-7-(trifluoromethyl)-1H-pyrazolo[4,3-c]quinolin-8-yl)((3S)-3-(4-(trifluoromethyl)phenyl)-4-morpholinyl)methanone] | 269 | 8110 |  |
| Nc1nc2cnc(C(=O)N3CCOC[C@@H]3c3ccc(C(F)(F)F)nn3)cc2c2c1COC2 [Example 549, (4-amino-1,3-dihydrofuro[3,4-c][1,7]naphthyridin-8-yl)((3S)-3-(6-(trifluoromethyl)-3-pyridazinyl)-4-morpholinyl)methanone] | 558 | 21500 |  |
| C[C@@H]1COC[C@H](c2ccc(OC3CC3)nn2)N1C(=O)c1cc2c3c(c(N)nc2cn1)COC3 [Example 550, (4-amino-1,3-dihydrofuro[3,4-c][1,7]naphthyridin-8-yl)((3S,5R)-3-(6-(cyclopropyloxy)-3-pyridazinyl)-5-methyl-4-morpholinyl)methanone] | 73 | 3150 |  |
| COc1ccc([C@H]2COC[C@@H](C)N2C(=O)c2cc3c(cc2F)nc(N)c2cnn(C)c23)nn1 [Example 551, (4-amino-7-fluoro-1-methyl-1H-pyrazolo[4,3-c]quinolin-8-yl)((3S,5R)-3-(6-methoxy-3-pyridazinyl)-5-methyl-4-morpholinyl)methanone] | 6 | 150 |  |
| COc1ccc([C@H]2COC[C@@H](C)N2C(=O)c2cc3c4c(c(N)nc3cc2F)[C@@H](C)OC4)nn1 [Example 552, ((3R)-4-amino-7-fluoro-3-methyl-1,3-dihydrofuro[3,4-c]quinolin-8-yl)((3S,5R)-3-(6-methoxy-3-pyridazinyl)-5-methyl-4-morpholinyl)methanone] | 13 | 369 |  |
| Cn1ncc2c(N)nc3ccc(C(=O)N4CCOC[C@@H]4c4ccc(OC(F)F)nn4)cc3c21 [Example 553, (4-amino-1-methyl-1H-pyrazolo[4,3-c]quinolin-8-yl)((3S)-3-(6-(difluoromethoxy)-3-pyridazinyl)-4-morpholinyl)methanone] | 513 | 32500 |  |
| C[C@@H]1COC[C@H](c2ccc(OC(F)F)nn2)N1C(=O)c1cc2c3c(c(N)nc2cn1)COC3 [Example 554, (4-amino-1,3-dihydrofuro[3,4-c][1,7]naphthyridin-8-yl)((3S,5R)-3-(6-(difluoromethoxy)-3-pyridazinyl)-5-methyl-4-morpholinyl)methanone] | 28 | 1100 |  |
| C[C@@H]1COC[C@H](c2ccc(C(F)(F)F)nn2)N1C(=O)c1cc2c3c(c(N)nc2cn1)COC3 [Example 555, (4-amino-1,3-dihydrofuro[3,4-c][1,7]naphthyridin-8-yl)((3R,5S)-3-methyl-5-(6-(trifluoromethyl)-3-pyridazinyl)-4-morpholinyl)methanone] | 41 | 1230 |  |
| Cn1ncc2c(N)nc3cc(F)c(C(=O)N4CCOC[C@@H]4c4ccc(OC(F)F)nn4)cc3c21 [Example 556, (4-amino-7-fluoro-1-methyl-1H-pyrazolo[4,3-c]quinolin-8-yl)((3S)-3-(6-(difluoromethoxy)-3-pyridazinyl)-4-morpholinyl)methanone] | 39 | 3580 |  |
| Nc1nc2cnc(C(=O)N3CC[S+]([O-])C[C@@H]3c3ccc(C(F)(F)F)cc3)cc2c2c1COC2 (stereo partly drawn) [Example 623, (4-Amino-1,3-dihydrofuro[3,4-c][1,7]naphthyridin-8-yl)((3S)-1-oxido-3-(4-(trifluoromethyl)phenyl)thiomorpholino)methanone] |  |  | IC50 ([1]; HCT116-MTAP null, 144 h): 843 nM; IC50 ([2]; Homo sapiens, HCT-116, 144 h): 25700 nM |
| (4-amino-1-methyl-1H- pyrazolo[4,3- c][1,7]naphthyridin-8- yl)((3R)-3-(4- (trifluoromethyl)benzyl)-1- pyrrolidinyl)methanone and (4-amino-1-methyl-1H- pyrazolo[4,3- c][1,7]naphthyridin-8- yl)((3S)-3-(4- (trifluoromethyl)benzyl)-1- pyrrolidinyl)methanone [Example 432] |  |  | IC50 [1, 5]: 616 nM; IC50 [2, 6]: 22700 nM |
| (4-amino-1-methyl-1H- pyrazolo[4,3- c][1,7]naphthyridin-8- yl)((3R)-3-(4- (trifluoromethyl)phenoxy)-1- pyrrolidinyl)methanone and (4-amino-1-methyl-1H- pyrazolo[4,3- c][1,7]naphthyridin-8- yl)((3S)-3-(4- (trifluoromethyl)phenoxy)-1- pyrrolidinyl)methanone [Example 433] |  |  | IC50 [1, 5]: 421 nM; IC50 [2, 6]: 14600 nM |
| (4-amino-7-chloro-1,3- dihydrofuro[3,4-c]quinolin-8- yl)((3R,4S)-3-ethyl-4-(4- methylphenyl)-1- pyrrolidinyl)methanone and (4-amino-7-chloro-1,3- dihydrofuro[3,4-c]quinolin-8- yl)((3S,4R)-3-ethyl-4-(4- methylphenyl)-1- pyrrolidinyl)methanone [Example 424] |  |  | IC50 [1, 5]: 345 nM; IC50 [2, 6]: 5690 nM |

Now from value to molecule, other results behind:

| IC50 [1, 3] [nM] | IC50 [2, 4] [nM] | Molecule | other results |
| --- | --- | --- | --- |
| 697 | 37100 | Cn1ncc2c3cc(C(=O)N4CCOC[C@@H]4c4ccc(OC(F)F)nn4)c(F)cc3nc(N)c21 [Example 557, (4-amino-7-fluoro-3-methyl-3H-pyrazolo[3,4-c]quinolin-8-yl)((3S)-3-(6-(difluoromethoxy)-3-pyridazinyl)-4-morpholinyl)methanone] |  |
| 17 | 630 | Cn1ncc2c(N)nc3cc(F)c(C(=O)N4CCOC[C@@H]4c4ccc(C(F)(F)F)cn4)cc3c21 [Example 558, (4-amino-7-fluoro-1-methyl-1H-pyrazolo[4,3-c]quinolin-8-yl)((3S)-3-(5-(trifluoromethyl)-2-pyridinyl)-4-morpholinyl)methanone] |  |
| 575 | 12000 | Cn1ncc2c(N)nc3cc(F)c(C(=O)N4CCOC[C@H]4c4ccc(C(F)(F)F)cn4)cc3c21 [Example 559, (4-amino-7-fluoro-1-methyl-1H-pyrazolo[4,3-c]quinolin-8-yl)((3R)-3-(5-(trifluoromethyl)-2-pyridinyl)-4-morpholinyl)methanone] |  |
| 42 | 2880 | Cn1ncc2c(N)nc3cc(F)c(C(=O)N4CCOC[C@@H]4c4ccc(C(F)(F)F)nn4)cc3c21 [Example 560, (4-amino-7-fluoro-1-methyl-1H-pyrazolo[4,3-c]quinolin-8-yl)((3S)-3-(6-(trifluoromethyl)-3-pyridazinyl)-4-morpholinyl)methanone] |  |
| 6 | 120 | C[C@@H]1COC[C@H](c2ccc(OC(F)F)nn2)N1C(=O)c1cc2c(cc1F)nc(N)c1cnn(C)c12 [Example 561, (4-amino-7-fluoro-1-methyl-1H-pyrazolo[4,3-c]quinolin-8-yl)((3S,5R)-3-(6-(difluoromethoxy)-3-pyridazinyl)-5-methyl-4-morpholinyl)methanone] |  |
| 6 | 84 | C[C@@H]1COC[C@H](c2ccc(OC(F)F)nn2)N1C(=O)c1cc2c3c(c(N)nc2cc1F)[C@@H](C)OC3 [Example 562, ((3R)-4-amino-7-fluoro-3-methyl-1,3-dihydrofuro[3,4-c]quinolin-8-yl)((3S,5R)-3-(6-(difluoromethoxy)-3-pyridazinyl)-5-methyl-4-morpholinyl)methanone] |  |
| 32 | 1060 | C[C@@H]1COC[C@H](c2ccc(OCC(F)(F)F)nn2)N1C(=O)c1cc2c3c(c(N)nc2cn1)COC3 [Example 563, (4-amino-1,3-dihydrofuro[3,4-c][1,7]naphthyridin-8-yl)((3R,5S)-3-methyl-5-(6-(2,2,2-trifluoroethoxy)-3-pyridazinyl)-4-morpholinyl)methanone] |  |
| 28 | 708 | C[C@@H]1COC[C@H](c2ccc(OCCC(F)(F)F)nn2)N1C(=O)c1cc2c3c(c(N)nc2cn1)COC3 [Example 564, (4-amino-1,3-dihydrofuro[3,4-c][1,7]naphthyridin-8-yl)((3R,5S)-3-methyl-5-(6-(3,3,3-trifluoropropoxy)-3-pyridazinyl)-4-morpholinyl)methanone] |  |
| 6 | 72 | C[C@@H]1COC[C@H](c2ccc(OCCC(F)(F)F)nn2)N1C(=O)c1cc2c3c(c(N)nc2cc1F)[C@@H](C)OC3 [Example 565, ((3R)-4-amino-7-fluoro-3-methyl-1,3-dihydrofuro[3,4-c]quinolin-8-yl)((3R,5S)-3-methyl-5-(6-(3,3,3-trifluoropropoxy)-3-pyridazinyl)-4-morpholinyl)methanone] |  |
| 343 | 8570 | CC(=O)N1CCN(C(=O)c2cc3c4c(c(N)nc3cn2)COC4)[C@@H](c2ccc(C(F)(F)F)cc2)C1 [Example 624, (S)-1-(4-(4-Amino-1,3-dihydrofuro[3,4-c][1,7]naphthyridine-8-carbonyl)-3-(4-(trifluoromethyl)phenyl)piperazin-1-yl)ethan-1-one] |  |
| 882 | 7260 | Nc1nc2ccc(C(=S)N3CCOC[C@@H]3c3ccc(C(F)(F)F)cc3)cc2c2c1COC2 [Example 625, (S)-(4-amino-1,3-dihydrofuro[3,4-c]quinolin-8-yl)(3-(4-(trifluoromethyl)phenyl)morpholino)methanethione] |  |
| 394 | 12900 | Nc1nc2cnc(C(=S)N3CCOC[C@@H]3c3ccc(C(F)(F)F)cc3)cc2c2c1COC2 [Example 626, (4-amino-1,3-dihydrofuro[3,4-c][1,7]naphthyridin-8-yl)((3S)-3-(4-(trifluoromethyl)phenyl)-4-morpholinyl)methanethione] |  |
